Data taken from patent publication US11197908B2, “Peptoids and methods for attenuating inflammatory response” (THE BOARD OF TRUSTEES OF THE UNIVERSITY OF ARKANSAS, priority 2018, dated 2021).
Read-outs that look alike come from different tables or passages of the source. Where a SMILES comes first, the peptide text is derived from it. [ ]: non-standard residue; d: D form. N(1S-Me-propyl)Gly = CC[C@H](C)NCC(=O)O; Nspe = C[C@H](NCC(=O)O)c1ccccc1; Nlys = NCCCCNCC(=O)O

Columns and labels:
RAGE = RAGE (Homo sapiens, UniProt Q15109); assay: Binding affinity for RAGE from binding equilibrium attained in solution (competition ELISA); conditions: 20 nM RAGE, JPT1a 0 to 1000 nM, overnight
Sequence of RAGE (Q15109 23-404): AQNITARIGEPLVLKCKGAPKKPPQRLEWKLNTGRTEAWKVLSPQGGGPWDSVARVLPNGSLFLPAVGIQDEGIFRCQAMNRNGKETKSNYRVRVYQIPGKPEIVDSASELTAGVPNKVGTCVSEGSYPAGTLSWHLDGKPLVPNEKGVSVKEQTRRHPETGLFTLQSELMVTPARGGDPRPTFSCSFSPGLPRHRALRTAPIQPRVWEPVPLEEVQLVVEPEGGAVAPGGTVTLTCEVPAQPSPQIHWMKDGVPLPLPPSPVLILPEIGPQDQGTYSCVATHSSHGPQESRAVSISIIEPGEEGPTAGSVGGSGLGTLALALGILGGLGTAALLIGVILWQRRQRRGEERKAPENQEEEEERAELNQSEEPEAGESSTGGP
Method: Definitive binding affinity of JPT1a for RAGE was determined from binding equilibrium attained in solution. As shown in FIGS. 8A-8B, 96-well plates coated with 500 nM JPT1a were treated with overnight incubations containing 20 nM RAGE and JPT1a in concentrations ranging from 0 nM to 1000 nM. Absorbance values were used to calculate relative [RAGE]bound and [RAGE]free via the […] (Friguet B, Chaffotte A F, Djavadi-Ohaniance L, Goldberg M E. Measurements of the true affinity constant in solution of antigen-antibody complexes by enzyme-linked immunosorbent assay. J Immunol Methods. 1985; 77(2):305-319; Rath S, Stanley C M. An inhibition enzyme immunoassay for estimating relative antibody affinity and affinity heterogeneity. 1988; 106:245-249; Newton P, Harrison P, Clulow S. A Novel Method for Determination of the Affinity of Protein: Protein Interactions in Homogeneous Assays. 2008:674-682). FIG. 8A. […] Black dashed lines indicate 95% confidence interval, and gray dashed lines indicate 95% prediction interval, n=4. FIG. 8B. […] Dashed lines indicate 95% confidence interval, n=3.

IL-6 = IL-6 in supernatant of THP-1 macrophages co-incubated with peptoid and LPS (ELISA); type: cell-based, human; conditions: 3 days, vs LPS alone
Method: THP-1 monocytes were differentiated into macrophages through exposure to phorbol 12-myristate 13-acetate (PMA) for three days prior to experimentation 10. […] Upon differentiation, these cells were then incubated (3 days) with media containing JPT1a (50, 10, or 2 μM) alone or JPT1a (50, 10, or 2 μM) in the presence of low-dose (2 ng/mL) lipopolysaccharide (LPS) as a chronic pro-inflammatory stimulus 11. Treatment with 2 ng/mL LPS alone served as a positive control, while treatment with an equivalent volume of buffer diluted into media served as the vehicle. Cellular supernatant was harvested on day 3 12; these samples were immediately centrifuged at 1200 rpm for 10 min at 25° C. to remove any cells or debris. The top 80% of this volume was subsequently removed and stored at −80° C. for later assessment of cytokines via ELISA. Cells were fixed and stained for RAGE, phalloidin (cytoplasmic marker), and DAPI (nuclear marker) 13. […] All multi-channel images were converted to TIFF file format via ImageJ64 software for quantitative image analysis using a custom subroutine written in Matlab™ software to obtain the average RAGE expression per volume of cells, and the data generated was assessed for statistical significance using GraphPad Prism 7.0 software 15.
(§1) As shown in FIGS. 2B-2D, THP-1 macrophages were treated with JPT1a alone (white) or in the presence of a chronic low-dose (2 ng/mL) of LPS (grey), for 3 days prior to supernatant harvest and storage. Examination of the supernatant via ELISA determined the concentrations of (FIG. 2B) IL-1β, (FIG. 2C) IL-6, and (FIG. 2D) IL-8. […]
as §1, with “5B-5D,” for “2B-2D,”, “JPT1” for “JPT1a”, “5B)” for “2B)”, “5C)” for “2C)”, “5D)” for “2D)”

Kd (RAGE; n=3, read-out: Kd, plot of specific binding (one epitope)): 79 ± 28.4 nM | Kd (RAGE; n=4, read-out: binding affinity for RAGE (Scatchard plot)): 139 nM
SMILES: CC[C@H](C)N(CC(=O)N(CC(=O)N(CC(=O)N(CC(=O)N(CC(=O)N(CC(=O)N(CC(N)=O)[C@@H](C)c1ccccc1)[C@@H](C)c1ccccc1)[C@@H](C)CC)[C@@H](C)c1ccccc1)[C@@H](C)c1ccccc1)[C@@H](C)CC)C(=O)CNCCCCN [JPT1a] (H-[Nlys][N(1S-Me-propyl)Gly][N(1S-Me-propyl)Gly][Nspe][Nspe][N(1S-Me-propyl)Gly][Nspe][Nspe]-NH2)
levels of LPS-induced IL-6 (IL-6; peptoid 10 μM with 2 ng/mL LPS): significantly reduces | LPS-induced production of IL-6 (IL-6; peptoid 50 μM with 2 ng/mL LPS): significantly attenuates
